# Where two headings read alike, the source gives them in different places.
# What was measured:
# HK2 [1] = target: T1, HK2 (Homo sapiens, UniProt P52789); experiment: In vitro enzyme inhibition assay (G6P-DH coupled, NADH 340 nm); format: biochemical
# T1 construct: made in house; host or cells: E. coli BL21 (DE3)
# T1 sequence (P52789 1-917): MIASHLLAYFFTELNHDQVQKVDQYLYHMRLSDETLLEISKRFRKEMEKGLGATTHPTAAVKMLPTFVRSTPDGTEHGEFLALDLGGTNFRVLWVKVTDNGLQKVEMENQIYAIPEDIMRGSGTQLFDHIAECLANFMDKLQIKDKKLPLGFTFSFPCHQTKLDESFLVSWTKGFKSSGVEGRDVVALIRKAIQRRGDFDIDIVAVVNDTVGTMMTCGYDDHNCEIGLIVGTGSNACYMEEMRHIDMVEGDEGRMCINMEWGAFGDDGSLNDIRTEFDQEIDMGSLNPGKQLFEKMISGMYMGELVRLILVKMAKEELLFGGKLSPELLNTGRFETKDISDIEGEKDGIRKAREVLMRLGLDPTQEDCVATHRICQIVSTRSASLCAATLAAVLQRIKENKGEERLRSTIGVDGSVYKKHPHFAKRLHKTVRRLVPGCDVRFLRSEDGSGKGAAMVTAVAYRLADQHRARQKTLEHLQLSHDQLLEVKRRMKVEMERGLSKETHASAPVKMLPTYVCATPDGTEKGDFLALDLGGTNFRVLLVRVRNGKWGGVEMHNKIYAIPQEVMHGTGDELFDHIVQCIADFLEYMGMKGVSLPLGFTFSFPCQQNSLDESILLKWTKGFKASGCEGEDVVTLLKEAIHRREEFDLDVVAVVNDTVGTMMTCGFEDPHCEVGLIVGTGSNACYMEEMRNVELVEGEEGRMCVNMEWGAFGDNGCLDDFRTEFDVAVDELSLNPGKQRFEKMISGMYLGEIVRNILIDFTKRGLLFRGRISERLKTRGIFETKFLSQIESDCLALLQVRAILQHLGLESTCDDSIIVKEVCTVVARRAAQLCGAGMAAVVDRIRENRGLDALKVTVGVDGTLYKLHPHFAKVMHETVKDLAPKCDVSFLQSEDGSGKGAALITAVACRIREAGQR
# Experimental: Then 85 μL assay mix containing 100 mM Tris HCl pH 8.0, 5 mM MgCl2, 200 mM Glucose, 0.8 mM ATP, 1 mM NAD^+, 0.25 Units of G6P-DH, was added.
# [2] = parameters: method as in PMID 17551814; conditions: dose range of 500-2000 mg/Kg in mice; cited from earlier work
# HK2 [3] = target: T1, HK2; experiment: Microscale thermophoresis (MST) assay; format: binding; conditions: labelled HK2 20 nM, 25 °C
# Experimental: MST was used to analyze the binding affinity between potential ligands and receptors. The purified HK2 was labeled with the Monolith NT™ Protein Labeling Kit RED (Cat # L001) according to the supplied labeling protocol. Labelled HK2 was kept constant at 20 nM, and all tested samples were 1:1 diluted in a 20 mM HEPES (pH 7.4) and 0.05 (v/v) % Tween-20. After 10 min incubation at room temperature, samples were loaded into Monolith™ standard-treated capillaries. And the thermophoresis was measured at 25 °C after 30 min incubation on a Monolith NT.115 instrument (Germany). Furthermore, laser power was set to 20% or 40% using 30 sec on-time. The LED power was set to 100%. The dissociation constant Kd values were fitted by using the NTAnalysis software.
# SMMC-7721 = experiment: Cytotoxicity test (CCK-8); format: cell-based; conditions: Homo sapiens, SMMC-7721, 48 h
# Experimental: (§1) Met was used as a positive control. All experiments were performed in triplicate.
# HCT116 = experiment: Cytotoxicity test (CCK-8); format: cell-based; conditions: Homo sapiens, HCT-116; HCT116, 48 h
# Experimental: as §1
# SW480 = experiment: Cytotoxicity test (CCK-8); format: cell-based; conditions: Homo sapiens, SW480, 48 h
# Experimental: as §1
# [4] = Cytotoxicity test (CCK-8); format: cell-based
# Experimental: as §1
# Lovo = experiment: Cytotoxicity test (CCK-8); format: cell-based; conditions: Homo sapiens, 48 h
# Experimental: as §1
# MCF-7 = experiment: Cytotoxicity test (CCK-8); format: cell-based; conditions: Homo sapiens, MCF7; MCF-7, 48 h
# Experimental: as §1
# [5] = recombinant HK2, n.i means no enzyme inhibition, read-out: Enzyme IC50
# [6] = recombinant HK2, n.i means no enzyme inhibition
smiles,measurement,setting,value
O=C(O)c1cc(/N=N/c2ccc(S(=O)(=O)Nc3ccccn3)cc2)ccc1O [Sulfasalazine],IC50,HK2 [1]; [5],> 1000 µM
CNC[C@H](O)[C@@H](O)[C@H](O)[C@H](O)CO [Meglumine],IC50,HK2 [1],> 1000 µM
NCCC(O)(P(=O)(O)O)P(=O)(O)O [Pamidronate],Enzyme IC50,HK2 [1]; [6],n.i
[H]/N=C(\N/C(=N/[H])NCCCCCCNC(=N)NC(=N)Nc1ccc(Cl)cc1)Nc1ccc(Cl)cc1 [Chlorhexidine],Enzyme IC50,HK2 [1]; [6],n.i
"O=CC[C@@H](O)[C@H](O)[C@H](O)CO [2-DG, 2-Deoxyglucose]",therapeutic activity as a single agent,[2],does not have significant therapeutic activity
same,Kd,HK2 [3],No binding affinity
"O=C(O)C(=O)CBr [3-BrPA, 3-Bromopyruvate]",Kd,HK2 [3]; read-out: Kd,742 ± 96.8 µM
O=C1O[C@H]([C@@H](O)CO)C(O)=C1O [Vitamin C],IC50,HK2 [1]; [5],> 1000 µM
O=C(CO)[C@@H](O)[C@H](O)[C@H](O)CO [D-Fructose],Enzyme IC50,HK2 [1]; [6],n.i ^C
N[C@H]1C(O)O[C@H](CO)[C@@H](O)[C@@H]1O (stereo partly drawn) [D-Glucosamine],IC50,HK2 [1]; [5],> 1000 µM
CN(C)C(=N)N=C(N)N [Metformin],IC50,SMMC-7721,> 1000 µM
same,IC50,HCT116,> 1000 µM
same,IC50,SW480,> 1000 µM
same,IC50 at 48 h,"[4]; African green monkey, Vero normal cells",> 1000 µM
same,IC50 at 48 h,"[4]; human, LO2 normal cells",> 1000 µM
same,IC50,Lovo,> 1000 µM
same,IC50,MCF-7,> 1000 µM
same,Kd,HK2 [3]; read-out: Kd,3930 ± 282 µM

# — PMC5399312 (Journal of Experimental & Clinical Cancer Research : CR, 2017)
